# In the kinase profiling compilation of Christmann-Franck et al. (2016):
# Tests used:
# Assay in all cases: radiometric filter-binding kinase assay, Kinase HotSpot
# Conditions in all cases: compound 0.5 µM; ATP 10 µM
# MAPK1 (human) = MAPK1 (human) (UniProt P28482)
# PHKG1 (human) = PHKG1 (human) (UniProt Q16816)
# GRK4 (human) = GRK4 (human) (UniProt P32298)
# RET (human) = RET (human) (UniProt P07949)
# FGFR1 (human) = FGFR1 (human) (UniProt P11362)
# WEE1 (human) = WEE1 (human) (UniProt P30291)
# Sequence of WEE1 (human) (P30291 whole entry, looked up): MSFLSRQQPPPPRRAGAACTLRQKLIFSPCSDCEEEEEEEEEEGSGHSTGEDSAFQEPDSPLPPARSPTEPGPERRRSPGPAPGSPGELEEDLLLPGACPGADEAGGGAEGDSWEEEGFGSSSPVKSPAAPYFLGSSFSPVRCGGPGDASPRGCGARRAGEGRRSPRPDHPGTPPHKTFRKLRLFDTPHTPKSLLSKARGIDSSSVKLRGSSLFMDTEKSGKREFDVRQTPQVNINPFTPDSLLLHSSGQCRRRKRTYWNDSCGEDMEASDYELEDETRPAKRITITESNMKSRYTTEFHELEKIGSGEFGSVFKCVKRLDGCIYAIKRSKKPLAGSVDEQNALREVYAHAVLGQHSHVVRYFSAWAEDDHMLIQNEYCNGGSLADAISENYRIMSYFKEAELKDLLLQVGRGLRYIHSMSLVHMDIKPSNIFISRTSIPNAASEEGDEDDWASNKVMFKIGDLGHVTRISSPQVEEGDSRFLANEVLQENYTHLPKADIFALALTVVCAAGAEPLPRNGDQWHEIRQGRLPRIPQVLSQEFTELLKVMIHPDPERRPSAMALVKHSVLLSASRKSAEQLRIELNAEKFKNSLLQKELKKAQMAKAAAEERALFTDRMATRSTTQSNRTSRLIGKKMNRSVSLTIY
# CDK4 CCND1 (human) = CDK4 CCND1 (human) (UniProt P24385+P11802)
# Sequence of CDK4 CCND1 (human) (P11802 whole entry, looked up): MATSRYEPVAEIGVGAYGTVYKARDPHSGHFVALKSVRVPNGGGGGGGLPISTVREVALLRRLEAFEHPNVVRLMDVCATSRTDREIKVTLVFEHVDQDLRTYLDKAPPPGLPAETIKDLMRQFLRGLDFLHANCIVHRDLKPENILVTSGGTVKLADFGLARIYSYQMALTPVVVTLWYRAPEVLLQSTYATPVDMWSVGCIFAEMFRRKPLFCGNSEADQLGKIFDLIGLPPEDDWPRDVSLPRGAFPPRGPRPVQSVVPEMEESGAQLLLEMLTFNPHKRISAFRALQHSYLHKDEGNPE
# Sequence of CDK4 CCND1 (human) (P24385 whole entry, looked up): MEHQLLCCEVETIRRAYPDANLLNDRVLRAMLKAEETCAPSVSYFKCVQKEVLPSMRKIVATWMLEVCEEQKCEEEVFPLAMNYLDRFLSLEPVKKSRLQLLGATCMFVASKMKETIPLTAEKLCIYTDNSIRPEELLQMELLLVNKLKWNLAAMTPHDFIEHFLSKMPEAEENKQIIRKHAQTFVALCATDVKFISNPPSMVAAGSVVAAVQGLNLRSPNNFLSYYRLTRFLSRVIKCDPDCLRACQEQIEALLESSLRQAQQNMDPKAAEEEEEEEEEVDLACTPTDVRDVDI
# LTK (human) = LTK (human) (UniProt P29376)
# ULK2 (human) = ULK2 (human) (UniProt Q8IYT8)
# MKNK2 (human) = MKNK2 (human) (UniProt Q9HBH9)
# Sequence of MKNK2 (human) (Q9HBH9 whole entry, looked up): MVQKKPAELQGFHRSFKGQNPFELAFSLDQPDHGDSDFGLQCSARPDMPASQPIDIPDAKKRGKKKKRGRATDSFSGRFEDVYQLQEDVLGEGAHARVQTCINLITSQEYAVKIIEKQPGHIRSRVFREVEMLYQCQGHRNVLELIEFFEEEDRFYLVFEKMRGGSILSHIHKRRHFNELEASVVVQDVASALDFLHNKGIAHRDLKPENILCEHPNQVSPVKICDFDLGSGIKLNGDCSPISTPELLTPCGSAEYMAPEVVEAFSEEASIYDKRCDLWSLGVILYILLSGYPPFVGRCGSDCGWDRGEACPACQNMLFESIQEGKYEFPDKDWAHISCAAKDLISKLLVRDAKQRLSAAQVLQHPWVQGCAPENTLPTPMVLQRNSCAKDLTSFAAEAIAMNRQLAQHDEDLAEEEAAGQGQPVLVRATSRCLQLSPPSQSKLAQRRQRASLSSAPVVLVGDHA
# CSNK2A1 (human) = CSNK2A1 (human) (UniProt P68400)
# TAOK1 (human) = TAOK1 (human) (UniProt Q7L7X3)
# Sequence of TAOK1 (human) (Q7L7X3 whole entry, looked up): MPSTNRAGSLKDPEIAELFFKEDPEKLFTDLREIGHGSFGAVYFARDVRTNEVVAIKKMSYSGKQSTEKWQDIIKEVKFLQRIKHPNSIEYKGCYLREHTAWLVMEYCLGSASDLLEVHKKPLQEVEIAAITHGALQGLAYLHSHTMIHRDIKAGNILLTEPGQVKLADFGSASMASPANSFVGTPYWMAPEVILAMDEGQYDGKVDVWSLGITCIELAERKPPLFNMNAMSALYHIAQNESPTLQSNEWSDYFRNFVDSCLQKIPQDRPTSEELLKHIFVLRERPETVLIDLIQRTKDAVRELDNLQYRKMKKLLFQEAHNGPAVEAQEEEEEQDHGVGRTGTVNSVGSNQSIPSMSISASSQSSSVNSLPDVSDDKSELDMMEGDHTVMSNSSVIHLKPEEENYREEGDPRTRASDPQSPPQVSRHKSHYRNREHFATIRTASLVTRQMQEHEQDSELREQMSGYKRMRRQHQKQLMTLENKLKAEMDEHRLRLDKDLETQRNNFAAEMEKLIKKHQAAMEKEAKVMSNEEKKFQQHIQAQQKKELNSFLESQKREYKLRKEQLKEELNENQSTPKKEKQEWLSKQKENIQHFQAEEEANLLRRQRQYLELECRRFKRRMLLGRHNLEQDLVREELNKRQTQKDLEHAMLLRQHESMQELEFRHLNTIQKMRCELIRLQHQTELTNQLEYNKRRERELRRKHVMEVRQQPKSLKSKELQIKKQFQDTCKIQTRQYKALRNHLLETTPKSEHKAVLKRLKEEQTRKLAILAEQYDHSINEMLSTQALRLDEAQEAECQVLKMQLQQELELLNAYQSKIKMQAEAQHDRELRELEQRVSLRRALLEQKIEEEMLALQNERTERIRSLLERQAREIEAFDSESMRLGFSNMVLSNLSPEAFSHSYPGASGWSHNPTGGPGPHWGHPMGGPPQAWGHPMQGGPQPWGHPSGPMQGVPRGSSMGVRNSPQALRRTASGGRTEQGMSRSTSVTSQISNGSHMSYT
# ABL1 (human) = ABL1 (human) (UniProt P00519)
# AURKA (human) = AURKA (human) (UniProt O14965)
# DDR2 (human) = DDR2 (human) (UniProt Q16832)
# MAPKAPK2 (human) = MAPKAPK2 (human) (UniProt P49137)
# PRKCD (human) = PRKCD (human) (UniProt Q05655)
# TAOK2 (human) = TAOK2 (human) (UniProt Q9UL54)
# CAMK2B (human) = CAMK2B (human) (UniProt Q13554)
# MLTK (human) = MLTK (human) (UniProt Q9NYL2)
# STK17A (human) = STK17A (human) (UniProt Q9UEE5)
# BRSK2 (human) = BRSK2 (human) (UniProt Q8IWQ3)
# STK24 (human) = STK24 (human) (UniProt Q9Y6E0)
# DCLK2 (human) = DCLK2 (human) (UniProt Q8N568)
# CDK3 CCNE1 (human) = CDK3 CCNE1 (human) (UniProt Q00526+P24864)
# NEK4 (human) = NEK4 (human) (UniProt P51957)
# RPS6KA2 KD1 KD2 (human) = RPS6KA2 KD1 KD2 (human) (UniProt Q15349)
# RPS6KA4 KD2 (human) = RPS6KA4 KD2 (human) (UniProt O75676)
# Sequence of RPS6KA4 KD2 (human) (O75676 whole entry, looked up): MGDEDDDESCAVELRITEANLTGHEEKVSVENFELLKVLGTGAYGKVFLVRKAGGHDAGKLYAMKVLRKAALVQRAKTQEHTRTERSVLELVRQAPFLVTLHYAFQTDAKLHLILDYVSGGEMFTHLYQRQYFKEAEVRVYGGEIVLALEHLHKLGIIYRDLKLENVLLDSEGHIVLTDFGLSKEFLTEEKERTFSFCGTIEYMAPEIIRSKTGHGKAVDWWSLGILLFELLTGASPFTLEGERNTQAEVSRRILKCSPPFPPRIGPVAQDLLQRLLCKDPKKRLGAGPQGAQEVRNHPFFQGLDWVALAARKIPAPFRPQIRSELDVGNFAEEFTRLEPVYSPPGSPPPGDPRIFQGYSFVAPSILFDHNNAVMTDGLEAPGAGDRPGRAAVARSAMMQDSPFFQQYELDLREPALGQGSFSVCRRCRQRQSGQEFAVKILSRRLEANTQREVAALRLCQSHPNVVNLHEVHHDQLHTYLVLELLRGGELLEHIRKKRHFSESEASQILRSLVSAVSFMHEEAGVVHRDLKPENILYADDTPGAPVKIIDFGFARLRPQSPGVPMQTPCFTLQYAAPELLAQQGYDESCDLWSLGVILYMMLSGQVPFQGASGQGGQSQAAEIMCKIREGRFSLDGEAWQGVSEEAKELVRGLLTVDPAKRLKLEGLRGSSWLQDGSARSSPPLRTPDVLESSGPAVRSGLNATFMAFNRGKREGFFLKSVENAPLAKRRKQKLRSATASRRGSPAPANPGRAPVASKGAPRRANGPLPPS
# EPHB3 (human) = EPHB3 (human) (UniProt P54753)
# Sequence of EPHB3 (human) (P54753 whole entry, looked up): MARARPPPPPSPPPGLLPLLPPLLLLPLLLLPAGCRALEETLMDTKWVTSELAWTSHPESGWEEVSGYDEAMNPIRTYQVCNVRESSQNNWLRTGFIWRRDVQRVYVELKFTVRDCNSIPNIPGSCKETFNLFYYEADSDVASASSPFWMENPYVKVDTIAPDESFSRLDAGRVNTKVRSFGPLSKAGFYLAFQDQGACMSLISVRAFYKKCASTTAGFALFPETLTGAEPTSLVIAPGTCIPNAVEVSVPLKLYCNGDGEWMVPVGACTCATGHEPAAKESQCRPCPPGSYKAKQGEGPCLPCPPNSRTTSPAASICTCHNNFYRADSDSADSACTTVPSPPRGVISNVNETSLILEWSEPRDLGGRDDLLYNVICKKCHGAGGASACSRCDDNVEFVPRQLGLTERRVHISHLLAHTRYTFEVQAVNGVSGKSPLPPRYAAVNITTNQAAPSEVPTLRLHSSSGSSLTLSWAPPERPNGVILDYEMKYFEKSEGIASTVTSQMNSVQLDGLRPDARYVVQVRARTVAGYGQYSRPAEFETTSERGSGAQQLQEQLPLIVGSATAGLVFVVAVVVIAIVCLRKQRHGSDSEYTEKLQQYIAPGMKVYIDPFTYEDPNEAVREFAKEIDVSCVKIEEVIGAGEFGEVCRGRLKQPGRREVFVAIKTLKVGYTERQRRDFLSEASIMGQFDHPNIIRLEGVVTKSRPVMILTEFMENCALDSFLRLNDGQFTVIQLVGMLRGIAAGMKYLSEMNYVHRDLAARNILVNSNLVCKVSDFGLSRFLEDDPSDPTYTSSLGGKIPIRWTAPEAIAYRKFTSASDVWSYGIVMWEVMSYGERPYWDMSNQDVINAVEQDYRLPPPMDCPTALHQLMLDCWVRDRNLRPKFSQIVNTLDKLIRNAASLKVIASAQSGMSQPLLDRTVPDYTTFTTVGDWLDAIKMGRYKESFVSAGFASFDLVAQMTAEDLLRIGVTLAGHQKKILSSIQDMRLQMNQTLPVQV
# TXK (human) = TXK (human) (UniProt P42681)
# MAPK14 (human) = MAPK14 (human) (UniProt Q16539)
# TYRO3 (human) = TYRO3 (human) (UniProt Q06418)
# RPS6KA6 KD1 KD2 (human) = RPS6KA6 KD1 KD2 (human) (UniProt Q9UK32)
# RPS6KB2 (human) = RPS6KB2 (human) (UniProt Q9UBS0)
# YES1 (human) = YES1 (human) (UniProt P07947)
# PRKCH (human) = PRKCH (human) (UniProt P24723)
# CLK3 (human) = CLK3 (human) (UniProt P49761)
# BLK (human) = BLK (human) (UniProt P51451)
# MAPKAPK5 (human) = MAPKAPK5 (human) (UniProt Q8IW41)
# NTRK3 (human) = NTRK3 (human) (UniProt Q16288)
# IKBKB (human) = IKBKB (human) (UniProt O14920)
# RPS6KA1 KD1 KD2 (human) = RPS6KA1 KD1 KD2 (human) (UniProt Q15418)
# Sequence of PHKG1 (human) (Q16816 whole entry, looked up): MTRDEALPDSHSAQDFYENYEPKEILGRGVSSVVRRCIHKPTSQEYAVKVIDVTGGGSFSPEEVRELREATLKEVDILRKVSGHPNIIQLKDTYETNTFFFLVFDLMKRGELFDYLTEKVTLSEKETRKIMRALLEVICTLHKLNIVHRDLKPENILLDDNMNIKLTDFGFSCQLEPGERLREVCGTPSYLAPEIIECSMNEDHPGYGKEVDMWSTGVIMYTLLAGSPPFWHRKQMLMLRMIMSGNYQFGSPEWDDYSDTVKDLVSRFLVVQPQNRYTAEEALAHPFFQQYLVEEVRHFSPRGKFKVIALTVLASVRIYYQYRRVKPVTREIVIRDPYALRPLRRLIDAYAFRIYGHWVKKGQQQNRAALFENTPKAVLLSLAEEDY
smiles,measurement,setting,value
CCn1cnc2c(Nc3cccc(Cl)c3)nc(N[C@@H]3CCCC[C@@H]3N)nc21,residual activity,MAPK1 (human),91.7%
same,residual activity,PHKG1 (human),62.8%
same,residual activity,GRK4 (human),96.2%
same,residual activity,RET (human),69.3%
same,residual activity,FGFR1 (human),85.7%
same,residual activity,WEE1 (human),110%
same,residual activity,CDK4 CCND1 (human),89.9%
same,residual activity,LTK (human),93.8%
same,residual activity,ULK2 (human),94.2%
same,residual activity,MKNK2 (human),93.5%
same,residual activity,CSNK2A1 (human),84.2%
same,residual activity,TAOK1 (human),90.2%
same,residual activity,ABL1 (human),94%
same,residual activity,AURKA (human),105%
same,residual activity,DDR2 (human),97.2%
same,residual activity,MAPKAPK2 (human),94.9%
same,residual activity,PRKCD (human),91.2%
same,residual activity,TAOK2 (human),101%
same,residual activity,CAMK2B (human),110%
same,residual activity,MLTK (human),104%
same,residual activity,STK17A (human),98.4%
same,residual activity,BRSK2 (human),94%
same,residual activity,STK24 (human),79%
same,residual activity,DCLK2 (human),93.1%
same,residual activity,CDK3 CCNE1 (human),49.7%
same,residual activity,NEK4 (human),96.8%
same,residual activity,RPS6KA2 KD1 KD2 (human),45.1%
same,residual activity,RPS6KA4 KD2 (human),88.2%
same,residual activity,EPHB3 (human),92.6%
same,residual activity,TXK (human),69.1%
same,residual activity,MAPK14 (human),100%
same,residual activity,TYRO3 (human),98.3%
same,residual activity,RPS6KA6 KD1 KD2 (human),75.7%
same,residual activity,RPS6KB2 (human),103%
same,residual activity,YES1 (human),35.4%
same,residual activity,PRKCH (human),77.6%
same,residual activity,CLK3 (human),99.8%
same,residual activity,BLK (human),87.1%
same,residual activity,MAPKAPK5 (human),98.3%
same,residual activity,NTRK3 (human),23.4%
Nc1nccc(-c2c(-c3ccc(F)cc3)ncn2C2CCNCC2)n1,residual activity,MAPK1 (human),96.6%
same,residual activity,PHKG1 (human),98.3%
same,residual activity,GRK4 (human),96.9%
same,residual activity,RET (human),89.4%
same,residual activity,FGFR1 (human),91.2%
same,residual activity,WEE1 (human),106%
same,residual activity,CDK4 CCND1 (human),99.9%
same,residual activity,LTK (human),97.3%
same,residual activity,ULK2 (human),113%
same,residual activity,MKNK2 (human),92.1%
same,residual activity,CSNK2A1 (human),94.7%
same,residual activity,TAOK1 (human),92.7%
same,residual activity,ABL1 (human),101%
same,residual activity,AURKA (human),100%
same,residual activity,DDR2 (human),107%
same,residual activity,MAPKAPK2 (human),97.6%
same,residual activity,IKBKB (human),104%
same,residual activity,PRKCD (human),99.8%
same,residual activity,TAOK2 (human),98%
same,residual activity,CAMK2B (human),97.7%
same,residual activity,MLTK (human),98%
same,residual activity,STK17A (human),97.8%
same,residual activity,BRSK2 (human),96.6%
same,residual activity,STK24 (human),98.8%
same,residual activity,DCLK2 (human),99.9%
same,residual activity,CDK3 CCNE1 (human),95.5%
same,residual activity,NEK4 (human),99.5%
same,residual activity,RPS6KA2 KD1 KD2 (human),99.3%
same,residual activity,RPS6KA4 KD2 (human),98.7%
same,residual activity,EPHB3 (human),101%
same,residual activity,TXK (human),99.1%
same,residual activity,TYRO3 (human),96.9%
same,residual activity,RPS6KA6 KD1 KD2 (human),109%
same,residual activity,RPS6KA1 KD1 KD2 (human),96.7%
same,residual activity,RPS6KB2 (human),90.9%
same,residual activity,YES1 (human),85.3%
same,residual activity,PRKCH (human),91.9%
same,residual activity,CLK3 (human),102%
same,residual activity,BLK (human),102%
same,residual activity,MAPKAPK5 (human),94%
same,residual activity,NTRK3 (human),97.1%
